In ChEMBL document CHEMBL1817618, “Synthesis and evaluation of dual site inhibitors of 3-deoxy-D-arabino-heptulosonate 7-phosphate synthase” (Bioorg Med Chem Lett, 2011):
Each block holds one compound with its values, some of them ahead of it.

What was measured:
[1] = molecular target: T1, Phospho-2-dehydro-3-deoxyheptonate aldolase (Escherichia coli, UniProt C3TIE2); test: Inhibition of recombinant Escherichia coli DAH7P synthase
[2] = molecular target: T1, Phospho-2-dehydro-3-deoxyheptonate aldolase; test: Competitive inhibition of recombinant Escherichia coli DAH7P synthase using PEP as substrate by Michaelis-Menten equation analysis using UV-visible spectrophotometry

T1 sequence (C3TIE2 whole entry): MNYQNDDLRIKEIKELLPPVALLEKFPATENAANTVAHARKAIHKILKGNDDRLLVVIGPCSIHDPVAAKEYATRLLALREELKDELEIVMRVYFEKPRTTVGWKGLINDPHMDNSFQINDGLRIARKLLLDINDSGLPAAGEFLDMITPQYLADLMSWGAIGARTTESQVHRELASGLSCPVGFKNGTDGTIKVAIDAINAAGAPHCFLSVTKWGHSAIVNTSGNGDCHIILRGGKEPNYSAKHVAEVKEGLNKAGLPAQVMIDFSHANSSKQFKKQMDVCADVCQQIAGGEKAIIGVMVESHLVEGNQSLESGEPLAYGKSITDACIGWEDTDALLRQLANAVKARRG

SMILES: C=C(CP(=O)(O)O)C(=O)O
Ki [1]: 270 µM

SMILES: C/C(=C\P(=O)(O)O)C(=O)O
Ki [1]: 4.7 µM

SMILES: O=C(O)C(=CP(=O)(O)O)CCCCCOP(=O)(O)O (mixture of isomers)
Ki [2]: 5.3 µM

The remaining lines, values ahead:

Ki [2]: 3.6 µM
SMILES: O=C(O)/C(=C/P(=O)(O)O)CCCCCBr

Ki [2]: 154 µM
SMILES: O=C(O)C(=CCCCCOP(=O)(O)O)CP(=O)(O)O (mixture of isomers)
